pIC50: −log10 of the molar value.
Assays:
Human CCR3 = molecular target: T1, Human CCR3 (Homo sapiens, UniProt P51677); experiment: Calcium mobilization assay, eotaxin-stimulated; assay type: cell-based; details: human CCR3-transformed K562 cells, 10 nM eotaxin; compounds of about 40 to 90% purity; read-out: Activity grade Ca2+ (IC50 class)
T1 construct: The cloned CCR3 cDNA was constructed with pcDNA3 vector and transfected into a IC562 cell line; expressed in transfected cells
T1 sequence (P51677 1-355): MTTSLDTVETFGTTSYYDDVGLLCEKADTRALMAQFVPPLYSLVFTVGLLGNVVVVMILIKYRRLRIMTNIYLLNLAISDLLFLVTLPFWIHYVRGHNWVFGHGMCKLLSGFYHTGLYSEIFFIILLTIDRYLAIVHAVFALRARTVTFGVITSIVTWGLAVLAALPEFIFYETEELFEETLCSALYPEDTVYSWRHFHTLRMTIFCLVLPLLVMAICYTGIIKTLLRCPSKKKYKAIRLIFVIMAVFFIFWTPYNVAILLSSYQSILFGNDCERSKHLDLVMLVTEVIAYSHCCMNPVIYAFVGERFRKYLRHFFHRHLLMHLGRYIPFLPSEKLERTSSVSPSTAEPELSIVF
Experimental: • Human CCR3-transformed K562 cells were used. The cloned CCR3 cDNA was constructed with pcDNA3 vector and transfected into a IC562 cell line. The human CCR3-transformed K562 cells were maintained in RPMI-1640 (Cat.#22400-089, Life Technologies) supplemented with 10% FCS (Cat.#A-1115-L, Hyclone), 55 μM 2-mercaptoethanol (Cat.#21985-023, Life Technologies), 1 mM sodium pyruvate (Cat.#11360-070, Life Technologies), 100 units/ml of penicillin G and 100 μg/ml of streptomycin (Cat.#15140-122, Life Technologies), and 0.4 mg/ml of Geneticin (Cat.#10131-035, Life Technologies)(hereinafter called “culture medium”). Before the receptor binding assay, cells were pretreated with 5 mM sodium butyrate (Cat.#193-01522, Wako)-containing the culture medium (2×10^5 cells/ml) for 20-24 hours to increase the expression of CCR3. (2) Receptor Binding Assay (RBA) • Butyrate-pretreated cells, suspended in binding buffer (25 mM HEPES pH 7.6, 1 mM CaCl2, 5 mM MgCl2, 0.5% BSA, 0.1% NaN3) at a cell density of 2×10^6 cells/ml, were added into 60 μl/well in the 96-well round bottom polypropylene plate (Cat.#3365, Costar). Compounds, diluted with the binding buffer (4-times higher concentration of the final concentration), were added into 30 μl/well in the polypropylene plate. [^125I]-labeled human eotaxin (Cat.#IM290, Amersham Pharmacia Biotech), diluted with the binding buffer at the concentration of 0.4 nM (final concentration; 0.1 nM), was added into 30 μl/well in the polypropylene plate. Total 120 μl/well of binding reaction mixture (60 μl/well of cell suspension, 30 μl/well of compound solution, and 30 μl/well of [^125I]-labeled eotaxin) were incubated in the polypropylene plate for 1 hour at room temperature after the incubation, 100 μl/well of the reaction mixture was transferred to a filtration plate (Cat.#MAFB-N0B, Millipore), and washed with the washing buffer (25 mM HEPES pH 7.6, 1 mM CaCl2, 5 mM MgCl2, 0.5% BSA, 0.1% NaN3, 0.5 M NaCl) twice. The 96-well filtration plate was pretreated with 100 μl/well of 0.5% polyethylenimine (Cat.#P-3143, Sigma) for 2-4 hours at room temperature and washed with the washing buffer twice before use. The non-specific binding was determined by parallel incubation in the presence of 500 nM of non-labeled eotaxin (Cat.#23209, Genzyme Techne). The radioactivities remained on the filter were measured by liquid scintillation counter (TopCount™, Packard) after an addition of 45 μl/well of scintillant (Microscint20, Cat.#6013621, Packard). The inhibition percent at each concentration of compound was calculated, and IC50 values were determined from the inhibition curve. [Determination of IC50 Values of Compounds in Calcium Mobilization Assay] (IC50 Ca2+) (1) Cell • Human CCR3-transformed K562 cells were used. The human CCR3-transformed K562 cells were maintained in RPMI-1640 supplemented with 10% FCS, 55 μM 2-mercaptoethanol (Cat.#21985-023, Life Technologies), 1 mM sodium pyruvate, 100 units/ml of penicillin G and 100 μg/ml of streptomycin and 0.4 mg/ml of Geneticin. Before the calcium mobilization assay, cells were pretreated with 5 mM sodium butyrate-containing the culture medium (2×10^5 cells/ml) for 20-24 hours to increase the expression of CCR3. (2) Calcium Mobilization Assay • Butyrate-pretreated cells were loaded with Fluo-3AM (Cat.#F-1242, Molecular Probes) in loading buffer (Hanks' solution Cat.#05906 Nissui, 20 mM HEPES pH 7.6, 0.1% BSA, 1 mM probenecid Cat.#P-8761 Sigma, 1 μM Fluo-3AM, 0.01% pluronic F-127 Cat.#P-6866 Molecular Probes) at a cell density of 1×10^7 cells/ml. Then, cells were washed with calcium assay buffer (Hanks' solution Cat.#05906 Nissui, 20 mM HEPES pH 7.6, 0.1% BSA, 1 mM Probenecid Cat.#P-8761 Sigma). The cell suspension (3.3×10^6 cells/ml) was added into 60 μl/well in the 96-well clear bottom black plate (Cat.#3904, Costar). Compounds, diluted (5-times concentration of the final concentration) with the calcium assay buffer, were added into 20 μl/well in the plate 10 minutes before assay. […]

melting point [°C] | pIC50 (Human CCR3) | SMILES
205 to 207 | > 6.00 | Cl.O=[N+]([O-])c1ccc(Sc2cc(Cl)cc(Cl)c2)c(S(=O)(=O)NCC2CCNCC2)c1 [Example 2-8]
189 | > 6.00 | NCCNS(=O)(=O)c1cc([N+](=O)[O-])ccc1Sc1cc(Cl)cc(Cl)c1 [Example 2-5]
147 to 148 | > 6.00 | O=[N+]([O-])c1ccc(Sc2cc(Cl)cc(Cl)c2)c(S(=O)(=O)N2CCN(CC3CCCO3)CC2)c1 (centres unmarked) [Example 2-2]
138 to 140 | > 6.00 | CN(C)CCN1CCN(S(=O)(=O)c2cc([N+](=O)[O-])ccc2Oc2cc(Cl)cc(Cl)c2)CC1 [Example 4-31]
134 | > 6.00 | CN(C)CC(C)(C)CNS(=O)(=O)c1cc([N+](=O)[O-])ccc1Oc1cc(Cl)cc(Cl)c1 [Example 4-35]
262 to 264 | > 6.00 | Cl.O=[N+]([O-])c1ccc(Sc2cc(Cl)cc(Cl)c2)c(S(=O)(=O)N2CCNCC2)c1 [Example 2-18]
125 | > 6.00 | COc1ccc(S(=O)(=O)N2CCNCC2)c(Oc2cc(C)cc(C)c2)c1.Cl [Example 1-49]
209 to 211 | > 6.00 | O=C(O)CCN1CCN(S(=O)(=O)c2cc([N+](=O)[O-])ccc2Sc2cc(Cl)cc(Cl)c2)CC1 [Example 2-10]
306 | > 6.00 | Cl.O=S(=O)(c1c(F)cccc1Oc1cc(Cl)cc(Cl)c1)N1CCNCC1 [Example 1-59]
237 | > 6.00 | Cc1ccc(Oc2ccc([N+](=O)[O-])cc2S(=O)(=O)N2CCNCC2)cn1.Cl [Example 1-70]
182 | > 6.00 | Cc1cc(O)cc(Oc2ccc([N+](=O)[O-])cc2S(=O)(=O)N2CCNCC2)c1.Cl [Example 1-71]
231 | > 6.00 | Cl.Cl.O=[N+]([O-])c1ccc(Oc2cncc(Cl)c2)c(S(=O)(=O)N2CCNCC2)c1 [Example 1-55]
230 to 231 | > 6.00 | Cl.O=[N+]([O-])c1ccc(Sc2cc(C(F)(F)F)cc(C(F)(F)F)c2)c(S(=O)(=O)N2CCNCC2)c1 [Example 2-20]
99 | > 6.00 | Cl.O=[N+]([O-])c1ccc(Oc2cccc(-c3ccccc3)c2)c(S(=O)(=O)N2CCNCC2)c1 [Example 1-68]
147 to 149 | > 6.00 | NCC1CCN(S(=O)(=O)c2cc([N+](=O)[O-])ccc2Sc2cc(Cl)cc(Cl)c2)CC1 [Example 2-7]
297 | > 6.00 | Cl.O=[N+]([O-])c1ccc(Oc2c(F)c(F)c(F)c(F)c2F)c(S(=O)(=O)N2CCNCC2)c1 [Example 1-73]
200 to 201 | > 6.00 | O=C(O)CCN1CCN(S(=O)(=O)c2cc([N+](=O)[O-])ccc2Oc2cc(Cl)cc(Cl)c2)CC1 [Example 1-98]
144 to 145 | > 6.00 | CN(C)CC(C)(C)CN(C)S(=O)(=O)c1cc([N+](=O)[O-])ccc1Sc1cc(Cl)cc(Cl)c1 [Example 26-3]
273 | 5.00 to 6.00 | Cl.O=[N+]([O-])c1ccc(Sc2ccc3ccccc3c2)c(S(=O)(=O)N2CCNCC2)c1 [Example 2-21]

melting point [°C] | pIC50 (Human CCR3) | SMILES
104 | > 6.00 | CN(c1cccnc1)S(=O)(=O)c1cc(C#N)ccc1Oc1cc(Cl)cc(Cl)c1.Cl [Example 13-10]
124 | > 6.00 | CSCCCN1CCN(S(=O)(=O)c2cc(C#N)ccc2Sc2cc(Cl)cc(Cl)c2)CC1 [Example 17-2]
215 | > 6.00 | Cc1ccc([N+](=O)[O-])c(Oc2ccc([N+](=O)[O-])cc2S(=O)(=O)N2CCNCC2)c1.Cl [Example 1-75]
229 to 231 | > 6.00 | Cc1cccc(Sc2ccc([N+](=O)[O-])cc2S(=O)(=O)N2CCNCC2)c1.Cl [Example 2-16]
181 | > 6.00 | COc1cc(Oc2cc(Cl)cc(Cl)c2)c(S(=O)(=O)N2CCNCC2)cc1[N+](=O)[O-].Cl [Example 1-50]
274 | 5.00 to 6.00 | Cc1cc(C)c(Sc2ccc([N+](=O)[O-])cc2S(=O)(=O)N2CCNCC2)c(C)c1.Cl [Example 2-15]
> 300 | > 6.00 | Cc1cc(C)cc(Oc2ccc([N+](=O)[O-])cc2S(=O)(=O)N2C(C)CNCC2C)c1.Cl (centres unmarked) [Example 1-94]
248 | > 6.00 | Cl.Nc1cccc(Oc2ccc([N+](=O)[O-])cc2S(=O)(=O)N2CCNCC2)c1 [Example 1-67]
144 to 145 | > 6.00 | N#Cc1ccc(Oc2cc(Cl)cc(Cl)c2)c(S(=O)(=O)N2CCC[C@H]2CN2CCCC2)c1 [Example 13-3]
> 300 | > 6.00 | O=[N+]([O-])c1ccc(Oc2cc(Cl)cc(Cl)c2)c(S(=O)(=O)NC2CCNCC2)c1 [Example 1-78]
148 | > 6.00 | Cc1cc(C)cc(Oc2cc(C)c(Cl)cc2S(=O)(=O)N2CCNCC2)c1.Cl [Example 5-8]
131 to 133 | > 6.00 | COCCCN1CCN(S(=O)(=O)c2cc([N+](=O)[O-])ccc2Sc2cc(Cl)cc(Cl)c2)CC1 [Example 2-9]
143 to 144 | > 6.00 | Cc1cc(C)cc(Sc2ccc([N+](=O)[O-])cc2S(=O)(=O)N2CCN(CC3CCCO3)CC2)c1 (centres unmarked) [Example 4-28]
156 to 158 | > 6.00 | CCOC(=O)CCN1CCN(S(=O)(=O)c2cc([N+](=O)[O-])ccc2Sc2cc(Cl)cc(Cl)c2)CC1 [Example 2-6]
136 | > 6.00 | Cc1cc(C)cc(Oc2cc(C)ccc2S(=O)(=O)N2CCNCC2)c1.Cl [Example 1-52]
236 to 238 | > 6.00 | Cl.O=[N+]([O-])c1ccc(Sc2cccc(F)c2)c(S(=O)(=O)N2CCNCC2)c1 [Example 2-19]
98 to 99 | > 6.00 | CCN(CC)CCN1CCN(S(=O)(=O)c2cc([N+](=O)[O-])ccc2Oc2cc(Cl)cc(Cl)c2)CC1 [Example 4-30]
247 to 250 | > 6.00 | Cl.N[C@@H]1CCN(S(=O)(=O)c2cc([N+](=O)[O-])ccc2Oc2cc(Cl)cc(Cl)c2)C1 [Example 1-99]

Source: patent US8242118B2, “Arylsulfonamide derivatives for use as CCR3 antagonists in the treatment of inflammatory and immunological disorders” (Axikin Pharmaceuticals Inc., priority 2001, dated 2012)
